Tests used:
[1] = Determination of the relaxation of the water protons (relaxation time T1, inversion recovery method); assay type: physicochemical; conditions: for T1: 2 millimolar solution in water, 89.55 MHz, room temp.
Procedure: Determination of the relaxation of the water protons by adding paramagnetic deuterated ferricinium compounds compared to the corresponding non-deuterated compounds. The following compounds are tested:
From the above compounds 2 millimolar solutions in water are prepared. Of these solutions the relaxation time T1 is determined at 89.55 MHz on a JEOL FX-90Q NMR spectrometer using the inversion recovery method (room temp.). In the experiments comprising in addition deuterium oxide, D2 O is added in a quantity of 1.0 mMole to a volume of 100 ml of the solution.

[2] = 103Ru-concentration in organs of rats after injection of Rc-amphetamine derivatives; assay type: in vivo; conditions: for 103Ru-concentration, brains / 103Ru-concentration, lungs / 103Ru-concentration, suprarenal glands: 0.5 μmol/kg; for D/H, brains / D/H, lungs / D/H, suprarenal glands: quotient deuterated / non-deuterated
Procedure: The above compounds are intravenously administered in doses of approx. 0.5 μmol/kg to two groups of each 4 rats. The compounds can be represented by the following formula: [drawing 7] After certain periods of time between 0 and 90 minutes after injection test animals are sacrificed and the ^103 Ru-concentration in the brains is determined. The results are graphically recorded in FIG. 1: the ^103 Ru-concentration (C) in the brains i.c. % dose/% body weight (% d/% wt), is plotted against the time (t) in min.
In the same way as described in Example X the effect of deuteration of N-methyl- and N,N-dimethylderivatives of ^103 Ru-labelled ruthenocene-amphetamine is investigated in vivo: groups of 3 or 4 rats as test animals; dose: 0.5 μmol/kg. After 15 or 20 minutes the ^103 Ru-concentration is determined in various organs of the rats, viz. brains, lungs and suprarenal glands, and presented in table B for the compounds tested. As will be apparent from the D/H value, i.e. the quotient of the ^103 Ru concentration of the deuterated compound and that of the non-deuterated compound, in all experiments except one (free amine-lungs) the affinity of the deuterated compounds to the organs is increased compared to the non-deuterated compounds.

[3] = tracer amounts, man; in words; cited from earlier work
[4] = + D2O, 1.0 mMole added to 100 ml of the solution

F[B-](F)(F)F.[Fe+3].c1cc[cH-]c1.c1cc[cH-]c1 [(c), [(C5 H5)2 Fe]^+ BF4^-]
T1 [1]: 1.65 s | T1 [1, 4]: 1.64 s

[103Ru+2].[2H]C([c-]1cccc1)C([2H])(C)N(C([2H])([2H])[2H])C([2H])([2H])[2H].c1cc[cH-]c1 (stereo not drawn) [--N,N-dimethyl D]
103Ru-concentration, brains ([2]; 15 min.): 3.33 % dosis/% body weight | 103Ru-concentration, lungs ([2]; 15 min.): 10.5 % dosis/% body weight | 103Ru-concentration, suprarenal glands ([2]; 15 min.): 11.9 % dosis/% body weight | D/H, brains ([2]; 15 min.): 1.45 | D/H, lungs ([2]; 15 min.): 1.32 | D/H, suprarenal glands ([2]; 15 min.): 1.57

[103Ru+2].[2H]C([c-]1cccc1)C([2H])(C)NC([2H])([2H])[2H].c1cc[cH-]c1 (stereo not drawn) [--N-methyl D]
103Ru-concentration, brains ([2]; 15 min.): 2.56 % dosis/% body weight | 103Ru-concentration, lungs ([2]; 15 min.): 11.3 % dosis/% body weight | 103Ru-concentration, suprarenal glands ([2]; 15 min.): 8.3 % dosis/% body weight | D/H, brains ([2]; 15 min.): 1.12 | D/H, lungs ([2]; 15 min.): 1.26 | D/H, suprarenal glands ([2]; 15 min.): 1.77

[2H]C([c-]1cccc1)C([2H])(C)N.[Ru+2].c1cc[cH-]c1 (stereo not drawn) [--NH2 D, ^103 Ru-1-ruthenocenyl-2-aminopropane-1,2-d2]
103Ru-concentration, brains ([2]; 20 min.): 2.56 % dosis/% body weight | 103Ru-concentration, lungs ([2]; 20 min.): 10.5 % dosis/% body weight | 103Ru-concentration, suprarenal glands ([2]; 20 min.): 6.2 % dosis/% body weight | D/H, brains ([2]; 20 min.): 1.31 | D/H, lungs ([2]; 20 min.): 0.85 | D/H, suprarenal glands ([2]; 20 min.): 1.29 | D/H, lungs ([2]; 20 min., listed as free amine): decreased value

[2H]O[2H] [D2 O, deuterium oxide]
effect of D2O on relaxation time ([1]; in words, not bound to the complex): does not change the relaxation time significantly

[2H]C([2H])([2H])CC(=O)C(CC(C)N(C)C)(c1ccccc1)c1ccccc1 (stereo not drawn) [methadone-d3]
metabolic behaviour compared with the unmodified drug [3]: substantially identical metabolic behaviour

[(C5 D5)2 Fe]^+ BF4^- [(d)]
T1 [1]: 1.04 s

[(CH3 -C5 D4)2 Fe]^+ BF4^- [(b)]
T1 [1]: 1.23 s

[(CH3 -C5 H4)2 Fe]^+ BF4^- [(a)]
T1 [1]: 1.62 s | T1 [1, 4]: 1.60 s
